Measured values taken from patent US20070149456A1, “Epithelial sodium channel inhibiting agents and uses therefor” (University of Pittsburgh, priority 2005, published 2007).
Values joined by “and” are separate entries in the source; they are usually repeats but may differ in a detail not shown here. Equal entries are not always repeated. “Also recorded” adds a separate entry of the source. Where two headings read alike, the source gives them in different places.

Biological target: T1, endogenous ENaC in mpkCCDc14 cells (Mus musculus, UniProt Q61180+Q9WU38+Q9WU39)
T1 construct: endogenous ENaC in a mouse cortical collecting duct (mpkCCDc14) cell line; endogenous in cells; host or cells: mpkCCDc14 mouse cortical collecting duct cell line
T1 sequence (Q61180 1-205): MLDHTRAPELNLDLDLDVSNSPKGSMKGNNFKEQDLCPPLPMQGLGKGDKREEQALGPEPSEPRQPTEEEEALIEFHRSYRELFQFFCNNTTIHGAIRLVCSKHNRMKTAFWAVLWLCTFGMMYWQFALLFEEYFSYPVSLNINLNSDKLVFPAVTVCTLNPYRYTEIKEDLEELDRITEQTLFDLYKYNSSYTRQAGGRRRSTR
T1 sequence (Q61180 232-699): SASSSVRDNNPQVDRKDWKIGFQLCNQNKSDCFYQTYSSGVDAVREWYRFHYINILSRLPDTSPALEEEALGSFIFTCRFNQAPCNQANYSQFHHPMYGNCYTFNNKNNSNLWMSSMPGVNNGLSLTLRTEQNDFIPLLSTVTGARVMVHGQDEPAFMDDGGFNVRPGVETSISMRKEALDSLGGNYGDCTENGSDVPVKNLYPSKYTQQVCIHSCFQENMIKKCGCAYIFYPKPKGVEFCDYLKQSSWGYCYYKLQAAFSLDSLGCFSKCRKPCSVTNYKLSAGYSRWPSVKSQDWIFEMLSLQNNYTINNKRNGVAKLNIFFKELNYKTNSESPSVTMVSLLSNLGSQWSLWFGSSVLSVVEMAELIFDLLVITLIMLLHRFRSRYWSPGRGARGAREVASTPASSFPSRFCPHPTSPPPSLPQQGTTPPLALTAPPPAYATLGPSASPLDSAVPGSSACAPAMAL
T1 sequence (Q9WU38 whole entry): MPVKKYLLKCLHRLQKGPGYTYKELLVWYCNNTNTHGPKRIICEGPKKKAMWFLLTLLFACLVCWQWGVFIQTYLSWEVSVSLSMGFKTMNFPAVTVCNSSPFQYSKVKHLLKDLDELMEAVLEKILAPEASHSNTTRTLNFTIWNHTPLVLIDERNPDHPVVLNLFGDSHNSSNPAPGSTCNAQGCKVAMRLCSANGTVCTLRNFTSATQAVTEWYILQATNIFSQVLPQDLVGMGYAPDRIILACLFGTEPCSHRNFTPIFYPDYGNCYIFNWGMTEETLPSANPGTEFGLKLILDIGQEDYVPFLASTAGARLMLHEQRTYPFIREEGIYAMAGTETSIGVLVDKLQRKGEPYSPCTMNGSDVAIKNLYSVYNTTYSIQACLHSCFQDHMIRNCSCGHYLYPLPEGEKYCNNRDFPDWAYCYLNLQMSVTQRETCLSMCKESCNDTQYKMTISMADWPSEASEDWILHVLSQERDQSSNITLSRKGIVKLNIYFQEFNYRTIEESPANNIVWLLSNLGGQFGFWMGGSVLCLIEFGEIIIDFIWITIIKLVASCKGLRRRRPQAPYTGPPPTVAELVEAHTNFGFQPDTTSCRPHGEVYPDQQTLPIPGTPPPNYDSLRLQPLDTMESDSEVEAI
T1 sequence (Q9WU39 1-143): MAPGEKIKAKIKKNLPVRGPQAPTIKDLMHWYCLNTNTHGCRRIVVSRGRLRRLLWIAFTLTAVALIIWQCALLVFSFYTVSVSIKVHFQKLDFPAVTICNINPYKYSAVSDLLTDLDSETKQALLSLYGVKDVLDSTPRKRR
T1 sequence (Q9WU39 187-655): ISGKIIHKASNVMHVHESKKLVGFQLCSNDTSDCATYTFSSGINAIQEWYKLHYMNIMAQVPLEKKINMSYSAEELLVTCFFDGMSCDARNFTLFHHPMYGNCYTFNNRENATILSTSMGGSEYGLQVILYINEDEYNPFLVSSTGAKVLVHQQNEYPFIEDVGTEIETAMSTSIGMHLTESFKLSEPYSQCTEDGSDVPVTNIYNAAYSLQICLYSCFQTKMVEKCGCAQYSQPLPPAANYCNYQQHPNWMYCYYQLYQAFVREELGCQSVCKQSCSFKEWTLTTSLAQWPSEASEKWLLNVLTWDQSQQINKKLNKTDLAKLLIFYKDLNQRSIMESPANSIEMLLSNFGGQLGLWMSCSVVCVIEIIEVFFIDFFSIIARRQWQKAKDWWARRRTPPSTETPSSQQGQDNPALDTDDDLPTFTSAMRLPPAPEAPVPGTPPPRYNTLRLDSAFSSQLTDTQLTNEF
Assay: Amiloride-sensitive short circuit current in mpkCCDc14 monolayers, Ussing chamber
Type: cell-based
Details: for Ki: mpkCCDc14 cells; for inhibition of amiloride sensitive short circuit currents: mpkCCDc14, increasing concentrations of peptide; for inhibition of transepithelial Na+ transport: peptide 3 μM in apical chamber; for reversibility of inhibition on washout: peptide 3 μM
Protocol: mpkCCDc14 Cell Culture—mpkCCDc14 cells were grown as previously reported (Bens, M., Vallet, V., Cluzeaud, F., Pascual-Letallec, L., Kahn, A., Rafestin-Oblin, M. E., Rossier, B. C., and Vandewalle, A. (1999), Corticosteroid-dependent sodium transport in a novel immortalized mouse collecting duct principal cell line, J. Am. Soc. Nephrol. 10, 923-934). mpkCCDc14 cells were subcultured onto permeable filter supports coated with collagen (0.4-μm pore size, 1-cm^2 surface area, Snapwell filters; Coming Inc., Acton, Mass.). Cells were kept on filters for at least 4 days in defined medium (Bens, M., Vallet, V., Cluzeaud, F., Pascual-Letallec, L., Kahn, A., Rafestin-Oblin, M. E., Rossier, B. C., and Vandewalle, A. (1999) J. Am. Soc. Nephrol. 10, 923-934 30) that was changed every second day. At least 24 h prior to the experiments, the culture medium was replaced with a minimal medium (without drugs or hormones) that contained only Dulbecco's modified Eagle's medium and Ham's F-12.
Short Circuit Current Measurements—Cell culture inserts were mounted in modified Ussing chambers (Harvard Apparatus, Holliston, Mass.), and the monolayers were continuously short-circuited with a voltage/current clamp system (Physiologic Instruments, San Diego, Calif.). A 2-mV bipolar pulse was applied periodically to measure the resistance of the monolayer. As previously described by Bridges et al. (Bridges, R. J., Newton, B. B., Pilewski, J. M., Devor, D. C., Poll, C. T., and Hall, R. L. (2001), Na+ transport in normal and CF human bronchial epithelial cells is inhibited by BAY 39-9437, Am. J. Physiol. 281, L16-L23 32, Na^+ transport in normal and CF human bronchial epithelial cells is inhibited by BAY 39-9437), the bath solution contained (in mM) 120 NaCl, 25 NaHCO3, 3.3 KH2PO4, 0.8 K2HPO4, 1.2 MgCl2, 1.2 CaCl2, and 10 glucose. The pH of this solution was 7.4 when gassed with a mixture of 95% O2-5% CO2 at 37° C.
(FIG. 6A) mpkCCDc14cells cultured on permeable membrane supports and mounted in a modified Ussing chamber were continuously short-circuited by a voltage clamp amplifier (Physiologic Instruments, San Diego, Calif.). Transepithelial resistance was monitored by applying a 4 mV bipolar pulse every 60 seconds. Where indicated, a 43 residue peptide corresponding to E144-K186 of mouse γ-ENaC (γ-peptide) was added to the apical chamber at a final concentration of 3 μM. […] Data presented as mean +/−standard error (n=8).
Vectors and Cell Culture—Wild-type, C-terminal and double epitope tagged mouse ENaC subunit cDNAs were previously described (Hughey, R. P., Mueller, G. M., Bruns, J. B., Kinlough, C. L., Poland, P. A., Harkleroad, K. L., Carattino, M. D., and Kleyman, T. R. (2003) J Biol Chem 278, 37073-37082 and Ahn, Y. J., Brooker, D. R., Kosari, F., Harte, B. J., Li, J., Mackler, S. A., and Kleyman, T. R. (1999), Cloning and functional expression of the mouse epithelial sodium channel, Am J Physiol 277, F121-129). The γ subunit mutations were generated in pcDNA3.1 (+) using a standard two-step PCR method. A cDNA clone (IMAGE #: 3600399) encoding full length mouse prostasin was obtained from Open Biosystems (Huntsville, Ala.) and sub-cloned into pcDNA3.1 (+) (Invitrogen, Carlsbad, Calif.). MDCK type 1 cells were a gift from Barry M. Gumbiner (Memorial Sloan-Kettering Cancer Center, New York) and were cultured as previously described (Lavelle, J. P., Negrete, H. O., Poland, P. A., Kinlough, C. L., Meyers, S. D., Hughey, R. P., and Zeidel, M. L. (1997), Low permeabilities of MDCK cell monolayers: a model barrier epithelium, Am J Physiol 273, F67-75). CCD (mpkCCDc14) cells were a gift from Alain Vandewalle (Institut National de la Santéet de la Recherche Médicale, Paris, France) and were cultured as previously described (Bens, M., Vallet, V., Cluzeaud, F., Pascual-Letallec, L., Kahn, A., Rafestin-Oblin, M. E., Rossier, B. C., and Vandewalle, A. (1999) J Am Soc Nephrol 10, 923-934).

Row | Substance | Ki (stated jointly for HBE or mpkCCDc14, read-out: Ki, block of endogenous ENaC activity) | increase of the IC50 for amiloride block (CCD cells, 3 μM γ-43) | IC50 (mouse CCD (mpkCCDc14), nonlinear curve fitting, read-out: IC50, inhibition of short circuit currents) | inhibition of amiloride sensitive short circuit currents (listed as γ cleavage product) | inhibition of amiloride sensitive short circuit currents (listed as γ-peptide) | Ki (stated jointly for HBE and mpkCCDc14, read-out: apparent Ki, inhibition of endogenous ENaC activity) | inhibition of transepithelial Na+ transport | inhibition of transepithelial Na+ transport (listed as γ-peptide) | reversibility of inhibition on washout | reversibility of inhibition on washout (listed as γ-peptide)
1 | Ac-DLRGALPHPLQRLRTPPPPNPARSAR-NH2 [α-26] | 50 to 100 µM |  |  |  |  |  |  |  |  | 
2 | Ac-EAGSMRSTWEGTPPRFLNLIPLLVFNENEKGKARDFFTGRKRK-NH2 [γ-43] |  | 60% | 2 to 3 µM and 3.2 µM | inhibited in a dose dependent manner | inhibited in a dose dependant manner | ~2 µM | rapidly inhibited; also recorded: marked inhibition | marked inhibition | reversible; also recorded: relieved by washout | reversibly inhibits; also recorded: relieved by wash out
